Test results as given in the supplement of paper PMC5908809.

How the values were obtained:
[1] = tested on: normal NK cells expanded with K562-aAPC; test: percent inhibition of viability; higher = more inhibition; details: 72 h, IL-2 2.5 ng/mL
Description: (§1)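 Drug sensitivity and resistance testing on K562-aAPC-expanded normal NK cells: 5 concentrations (10-fold steps over a 10,000-fold range), 72 h at 37 °C, viability by CellTiter-Glo normalised to DMSO and benzethonium chloride controls; DSS from the fitted curve.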

[2] = tested on: DERL-7 (IL-2 2.5 ng/mL); test: as above; details: 72 h
[3] = tested on: IMC-1 (IL-2 20 ng/mL); test: as above; details: 72 h
[4] = tested on: KAI3 (IL-2 2.5 ng/mL); test: as above; details: 72 h
[5] = tested on: KHYG-1 (IL-2 2.5 ng/mL); test: as above; details: 72 h
[6] = tested on: NK-92 (IL-2 2.5 ng/mL); test: as above; details: 72 h
[7] = tested on: NK-YS (IL-2 2.5 ng/mL); test: as above; details: 72 h
[8] = tested on: NKL (IL-2 2.5 ng/mL); test: as above; details: 72 h
[9] = tested on: SNK-6 (IL-2 2.5 ng/mL); test: as above; details: 72 h
[10] = tested on: YT (IL-2 2.5 ng/mL); test: as above; details: 72 h
[11] = tested on: normal primary NK cells, pool 1 (3 donors) (IL-2 2.5 ng/mL); test: as above; details: 72 h
[12] = tested on: normal primary NK cells, pool 1 (3 donors), resting (IL-2 0 ng/mL); test: as above; details: 72 h
[13] = tested on: normal primary NK cells, pool 2 (3 donors) (IL-2 2.5 ng/mL); test: as above; details: 72 h
[14] = tested on: normal primary NK cells, pool 3 (3 donors) (IL-2 2.5 ng/mL); test: as above; details: 72 h
[15] = tested on: normal NK cells expanded with K562-aAPC; test: drug sensitivity score (DSS) (DSS units); higher = more sensitive; extreme values may be limits of the assay; details: 72 h; IL-2 2.5 ng/mL
Description: as §1

[16] = tested on: DERL-7 (IL-2 2.5 ng/mL); test: as above; details: 72 h
[17] = tested on: IMC-1 (IL-2 20 ng/mL); test: as above; details: 72 h
[18] = tested on: KAI3 (IL-2 2.5 ng/mL); test: as above; details: 72 h
[19] = tested on: KHYG-1 (IL-2 2.5 ng/mL); test: as above; details: 72 h
[20] = tested on: NK-92 (IL-2 2.5 ng/mL); test: as above; details: 72 h
[21] = tested on: NK-YS (IL-2 2.5 ng/mL); test: as above; details: 72 h
[22] = tested on: NKL (IL-2 2.5 ng/mL); test: as above; details: 72 h
[23] = tested on: SNK-6 (IL-2 2.5 ng/mL); test: as above; details: 72 h
[24] = tested on: YT (IL-2 2.5 ng/mL); test: as above; details: 72 h
[25] = tested on: normal primary NK cells, pool 1 (3 donors) (IL-2 2.5 ng/mL); test: as above; details: 72 h
[26] = tested on: normal primary NK cells, pool 1 (3 donors), resting (IL-2 0 ng/mL); test: as above; details: 72 h
[27] = tested on: normal primary NK cells, pool 2 (3 donors) (IL-2 2.5 ng/mL); test: as above; details: 72 h
[28] = tested on: normal primary NK cells, pool 3 (3 donors) (IL-2 2.5 ng/mL); test: as above; details: 72 h

CO[C@@H]1[C@H](N(C)C(=O)c2ccccc2)C[C@H]2O[C@]1(C)n1c3ccccc3c3c4c(c5c6ccccc6n2c5c31)C(=O)NC4 [Midostaurin] (max concentration tested 10000 nM)
percent inhibition of viability ([1]; 1 nM): -0.81%
percent inhibition of viability ([1]; 10 nM): -0.07%
percent inhibition of viability ([1]; 100 nM): 14.2%
percent inhibition of viability ([1]; 1000 nM): 93.4%
percent inhibition of viability ([1]; 10000 nM): 95.7%
percent inhibition of viability ([2]; 1 nM): 2.78%
percent inhibition of viability ([2]; 10 nM): 1.24%
percent inhibition of viability ([2]; 100 nM): 18.5%
percent inhibition of viability ([2]; 1000 nM): 93.3%
percent inhibition of viability ([2]; 10000 nM): 98.4%
percent inhibition of viability ([3]; 1 nM): -6.1%
percent inhibition of viability ([3]; 10 nM): -6.16%
percent inhibition of viability ([3]; 100 nM): -11.8%
percent inhibition of viability ([3]; 1000 nM): 87.9%
percent inhibition of viability ([3]; 10000 nM): 100%
percent inhibition of viability ([4]; 1 nM): 0.66%
percent inhibition of viability ([4]; 10 nM): 3.14%
percent inhibition of viability ([4]; 100 nM): 21.1%
percent inhibition of viability ([4]; 1000 nM): 89.4%
percent inhibition of viability ([4]; 10000 nM): 91.2%
percent inhibition of viability ([5]; 1 nM): 2.07%
percent inhibition of viability ([5]; 10 nM): -3.07%
percent inhibition of viability ([5]; 100 nM): 17%
percent inhibition of viability ([5]; 1000 nM): 105%
percent inhibition of viability ([5]; 10000 nM): 99.1%
percent inhibition of viability ([6]; 1 nM): 7.3%
percent inhibition of viability ([6]; 10 nM): 4.05%
percent inhibition of viability ([6]; 100 nM): 7.33%
percent inhibition of viability ([6]; 1000 nM): 80.9%
percent inhibition of viability ([6]; 10000 nM): 89.5%
percent inhibition of viability ([7]; 1 nM): 1.77%
percent inhibition of viability ([7]; 10 nM): 2.14%
percent inhibition of viability ([7]; 100 nM): 11.2%
percent inhibition of viability ([7]; 1000 nM): 65.2%
percent inhibition of viability ([7]; 10000 nM): 78.6%
percent inhibition of viability ([8]; 1 nM): -4.72%
percent inhibition of viability ([8]; 10 nM): -9.81%
percent inhibition of viability ([8]; 100 nM): 28.3%
percent inhibition of viability ([8]; 1000 nM): 79.7%
percent inhibition of viability ([8]; 10000 nM): 77.5%
percent inhibition of viability ([9]; 1 nM): -0.77%
percent inhibition of viability ([9]; 10 nM): 8.75%
percent inhibition of viability ([9]; 100 nM): 42.7%
percent inhibition of viability ([9]; 1000 nM): 95.2%
percent inhibition of viability ([9]; 10000 nM): 97.3%
percent inhibition of viability ([10]; 1 nM): 4.08%
percent inhibition of viability ([10]; 10 nM): 0.3%
percent inhibition of viability ([10]; 100 nM): 9.56%
percent inhibition of viability ([10]; 1000 nM): 51.4%
percent inhibition of viability ([10]; 10000 nM): 69.3%
percent inhibition of viability ([11]; 1 nM): -13%
percent inhibition of viability ([11]; 10 nM): -12.2%
percent inhibition of viability ([11]; 100 nM): 25.8%
percent inhibition of viability ([11]; 1000 nM): 79.6%
percent inhibition of viability ([11]; 10000 nM): 88.2%
percent inhibition of viability ([12]; 1 nM): -2.01%
percent inhibition of viability ([12]; 10 nM): -12%
percent inhibition of viability ([12]; 100 nM): 7.17%
percent inhibition of viability ([12]; 1000 nM): 29%
percent inhibition of viability ([12]; 10000 nM): 62.3%
percent inhibition of viability ([13]; 1 nM): -14.8%
percent inhibition of viability ([13]; 10 nM): -10.1%
percent inhibition of viability ([13]; 100 nM): -0.23%
percent inhibition of viability ([13]; 1000 nM): 76.7%
percent inhibition of viability ([13]; 10000 nM): 85.8%
percent inhibition of viability ([14]; 1 nM): -7.31%
percent inhibition of viability ([14]; 10 nM): -6.65%
percent inhibition of viability ([14]; 100 nM): 1.51%
percent inhibition of viability ([14]; 1000 nM): 63.5%
percent inhibition of viability ([14]; 10000 nM): 83%
drug sensitivity score [15]: 19.3
drug sensitivity score [16]: 19.5
drug sensitivity score [17]: 15.6
drug sensitivity score [18]: 19.3
drug sensitivity score [19]: 20.9
drug sensitivity score [20]: 15.8
drug sensitivity score [21]: 13.5
drug sensitivity score [22]: 18.5
drug sensitivity score [23]: 22.2
drug sensitivity score [24]: 10.8
drug sensitivity score [25]: 18
drug sensitivity score [26]: 6.7
drug sensitivity score [27]: 14
drug sensitivity score [28]: 12.1

CS(=O)(=O)N1CCc2c(-c3cnc(N)nc3)nc(N3CCOCC3)nc21 (max concentration tested 10000 nM)
percent inhibition of viability ([1]; 1 nM): -0.53%
percent inhibition of viability ([1]; 10 nM): -3.07%
percent inhibition of viability ([1]; 100 nM): 3.27%
percent inhibition of viability ([1]; 1000 nM): 24.3%
percent inhibition of viability ([1]; 10000 nM): 52.9%
percent inhibition of viability ([2]; 1 nM): -3.09%
percent inhibition of viability ([2]; 10 nM): -4.08%
percent inhibition of viability ([2]; 100 nM): 3.85%
percent inhibition of viability ([2]; 1000 nM): 42.4%
percent inhibition of viability ([2]; 10000 nM): 85.6%
percent inhibition of viability ([3]; 1 nM): -0.46%
percent inhibition of viability ([3]; 10 nM): 0.95%
percent inhibition of viability ([3]; 100 nM): 2.38%
percent inhibition of viability ([3]; 1000 nM): -7.5%
percent inhibition of viability ([3]; 10000 nM): -15.8%
percent inhibition of viability ([4]; 1 nM): 7.02%
percent inhibition of viability ([4]; 10 nM): 7.63%
percent inhibition of viability ([4]; 100 nM): 15.1%
percent inhibition of viability ([4]; 1000 nM): 29.3%
percent inhibition of viability ([4]; 10000 nM): 51.8%
percent inhibition of viability ([5]; 1 nM): 4.51%
percent inhibition of viability ([5]; 10 nM): -0.98%
percent inhibition of viability ([5]; 100 nM): -0.03%
percent inhibition of viability ([5]; 1000 nM): 9.84%
percent inhibition of viability ([5]; 10000 nM): 39.7%
percent inhibition of viability ([6]; 1 nM): -5.62%
percent inhibition of viability ([6]; 10 nM): -3.32%
percent inhibition of viability ([6]; 100 nM): 15.7%
percent inhibition of viability ([6]; 1000 nM): 40.8%
percent inhibition of viability ([6]; 10000 nM): 55.8%
percent inhibition of viability ([7]; 1 nM): 4.61%
percent inhibition of viability ([7]; 10 nM): 0.28%
percent inhibition of viability ([7]; 100 nM): 4.3%
percent inhibition of viability ([7]; 1000 nM): 32.1%
percent inhibition of viability ([7]; 10000 nM): 62.7%
percent inhibition of viability ([8]; 1 nM): 14.7%
percent inhibition of viability ([8]; 10 nM): 9.02%
percent inhibition of viability ([8]; 100 nM): 17.7%
percent inhibition of viability ([8]; 1000 nM): 40.3%
percent inhibition of viability ([8]; 10000 nM): 71.3%
percent inhibition of viability ([9]; 1 nM): -21.9%
percent inhibition of viability ([9]; 10 nM): -10.1%
percent inhibition of viability ([9]; 100 nM): -16.1%
percent inhibition of viability ([9]; 1000 nM): 5.8%
percent inhibition of viability ([9]; 10000 nM): 44.2%
percent inhibition of viability ([10]; 1 nM): 2.76%
percent inhibition of viability ([10]; 10 nM): 1.12%
percent inhibition of viability ([10]; 100 nM): 1.06%
percent inhibition of viability ([10]; 1000 nM): 26.2%
percent inhibition of viability ([10]; 10000 nM): 75.4%
percent inhibition of viability ([11]; 1 nM): -5.22%
percent inhibition of viability ([11]; 10 nM): -10.5%
percent inhibition of viability ([11]; 100 nM): 16.6%
percent inhibition of viability ([11]; 1000 nM): 24.4%
percent inhibition of viability ([11]; 10000 nM): 35.2%
percent inhibition of viability ([12]; 1 nM): -25.7%
percent inhibition of viability ([12]; 10 nM): -37.9%
percent inhibition of viability ([12]; 100 nM): 3.84%
percent inhibition of viability ([12]; 1000 nM): -1.15%
percent inhibition of viability ([12]; 10000 nM): 14.8%
percent inhibition of viability ([13]; 1 nM): -2.54%
percent inhibition of viability ([13]; 10 nM): -3.72%
percent inhibition of viability ([13]; 100 nM): -0.24%
percent inhibition of viability ([13]; 1000 nM): 21.6%
percent inhibition of viability ([13]; 10000 nM): 34.8%
percent inhibition of viability ([14]; 1 nM): -11.3%
percent inhibition of viability ([14]; 10 nM): -9.29%
percent inhibition of viability ([14]; 100 nM): 13%
percent inhibition of viability ([14]; 1000 nM): 19.5%
percent inhibition of viability ([14]; 10000 nM): 28.9%
drug sensitivity score [15]: 5.59
drug sensitivity score [16]: 9.77
drug sensitivity score [17]: 0
drug sensitivity score [18]: 7.4
drug sensitivity score [19]: 3.5
drug sensitivity score [20]: 9.23
drug sensitivity score [21]: 7.16
drug sensitivity score [22]: 10.4
drug sensitivity score [23]: 3.23
drug sensitivity score [24]: 7.87
drug sensitivity score [25]: 5.87
drug sensitivity score [26]: 0.17
drug sensitivity score [27]: 4.2
drug sensitivity score [28]: 4.2
